This assay relates to HL60 cells. Put plainly: Anti-cancer activity test, MTT, HL60 cells. Format: cell-based. The settings on record: Homo sapiens, HL-60, culturing for 72 hours. The protocol: Cell culture medium: Roswell medium RPMI-1640 (+L-glutamine) was added with 10% fetal bovine serum, with 100 units penicillin and 100 μg streptomycin per ml.
Cell culture conditions: 5% CO2, 95% humidity, cultured at 37° C. constant temperature.
2. Cell Inoculation, Drugs Dosing and Culture.
Logarithmic growth phase HL-60, human chronic myeloid leukemia cells (K562), human esophageal squamous cell carcinoma cells (KYSE510), human large cell lung cancer cells (H460) were inoculated into 96-well cell culture plates, 2×10^4 cells per well. Different concentrations of active compounds (dissolved in dimethyl sulfoxide (DMSO) stock solution) were added, so that the final concentration of DMSO was 0.2%, and the control group was DMSO. Each group was repeated three times.
After culturing for 72 hours, 20 µL of thiazolyl blue (MTT) (5 mg/ml, ready for use, dissolved in 1×PBS for cell culture) was added to each well, and incubated at 37° C. for 3 hours.
The 96-well cell culture plates were centrifuged at 1000 rpm for 10 minutes. The supernatant was discarded; 200 μL of DMSO was added to each well and the plate was shaken for 5 minutes.
The absorbance of each well was detected at 570 nm wavelength with a microplate reader, and the IC50 of the compounds was calculated.

With `CC(C)C[C@H](NC(=O)[C@H](CC(=O)NC(c1ccccc1)(c1ccccc1)c1ccccc1)NC(=O)OCC1c2ccccc2-c2ccccc21)B1O[C@@H]2C[C@@H]3C[C@@H](C3(C)C)[C@]2(C)O1` [Compound A1], the IC50 was under 100 nM.
In the case of `CC(C)C[C@H](NC(=O)[C@H](Cc1cn(C(=O)OC(C)(C)C)c2ccccc12)NC(=O)OCC1c2ccccc2-c2ccccc21)B1O[C@@H]2C[C@@H]3C[C@@H](C3(C)C)[C@]2(C)O1` [Compound A8] it was under 100 nM; in that of `CC(C)C[C@H](NC(=O)[C@@H](CC(=O)NC(c1ccccc1)(c1ccccc1)c1ccccc1)NC(=O)OCC1c2ccccc2-c2ccccc21)B1O[C@@H]2C[C@@H]3C[C@@H](C3(C)C)[C@]2(C)O1` [Compound A9], 100 to 500 nM.
In the case of `CC(C)C[C@H](NC(=O)[C@@H](NC(=O)OCC1c2ccccc2-c2ccccc21)[C@@H](C)O)B1O[C@@H]2C[C@@H]3C[C@@H](C3(C)C)[C@]2(C)O1` [Compound A11] it was 100 to 500 nM; in that of `CC(C)C[C@H](NC(=O)[C@H](C)NC(=O)OCC1c2ccccc2-c2ccccc21)B1O[C@@H]2C[C@@H]3C[C@@H](C3(C)C)[C@]2(C)O1` [Compound A12], under 100 nM.
The value for `COC(=O)CC[C@H](NC(=O)OCC1c2ccccc2-c2ccccc21)C(=O)N[C@@H](CC(C)C)B1O[C@@H]2C[C@@H]3C[C@@H](C3(C)C)[C@]2(C)O1` [Compound A14] was under 100 nM.
Take `CC(C)C[C@H](NC(=O)[C@H](Cc1ccccc1)NC(=O)OCC1c2ccccc2-c2ccccc21)B1O[C@@H]2C[C@@H]3C[C@@H](C3(C)C)[C@]2(C)O1` [Compound A15]: the IC50 was under 100 nM.
The value for `COC(=O)C[C@H](NC(=O)OCC1c2ccccc2-c2ccccc21)C(=O)N[C@@H](CC(C)C)B1O[C@@H]2C[C@@H]3C[C@@H](C3(C)C)[C@]2(C)O1` [Compound A16] was under 100 nM; that for `CC(C)C[C@H](NC(=O)[C@H](CCc1ccccc1)NC(=O)OCC1c2ccccc2-c2ccccc21)B1O[C@@H]2C[C@@H]3C[C@@H](C3(C)C)[C@]2(C)O1` [Compound A17] was under 100 nM; that for `CC(C)C[C@H](NC(=O)[C@H](Cc1c[nH]c2ccccc12)NC(=O)OCC1c2ccccc2-c2ccccc21)B1O[C@@H]2C[C@@H]3C[C@@H](C3(C)C)[C@]2(C)O1` [Compound A18] was under 100 nM.
The value for `CC(C)C[C@H](NC(=O)[C@H](CC(=O)NC(c1ccccc1)(c1ccccc1)c1ccccc1)NC(=O)OC(C)(C)C)B1O[C@@H]2C[C@@H]3C[C@@H](C3(C)C)[C@]2(C)O1` [Compound A19] was 100 to 500 nM; that for `CC(C)C[C@H](NC(=O)[C@H](CC(=O)NC(c1ccccc1)(c1ccccc1)c1ccccc1)NC(=O)OCc1ccccc1)B1O[C@@H]2C[C@@H]3C[C@@H](C3(C)C)[C@]2(C)O1` [Compound A20] was under 100 nM; that for `CC(C)C[C@H](NC(=O)[C@H](Cc1c[nH]c2ccccc12)NC(=O)OCc1ccccc1)B1O[C@@H]2C[C@@H]3C[C@@H](C3(C)C)[C@]2(C)O1` [Compound A21] was under 100 nM.
The value for `C[C@H](NC(=O)[C@H](CCCCNC(=O)OC(C)(C)C)NC(=O)OCC1c2ccccc2-c2ccccc21)B1O[C@@H]2C[C@@H]3C[C@@H](C3(C)C)[C@]2(C)O1` [Compound A23] was 100 to 500 nM; that for `CC(C)C[C@H](NC(=O)[C@H](CC(C)C)NC(=O)CC1c2ccccc2-c2ccccc21)B1O[C@@H]2C[C@@H]3C[C@@H](C3(C)C)[C@]2(C)O1` [Compound A24] was under 100 nM.
Take `CC(C)C[C@H](NC(=O)[C@H](Cc1c[nH]c2ccccc12)NC(=O)CC12CC3CC(CC(C3)C1)C2)B1O[C@@H]2C[C@@H]3C[C@@H](C3(C)C)[C@]2(C)O1` [Compound A25]: the IC50 is under 100 nM.
In the case of `CC(C)C[C@H](NC(=O)[C@H](Cc1c[nH]c2ccccc12)NC(=O)C12CC3CC(CC(C3)C1)C2)B1O[C@@H]2C[C@@H]3C[C@@H](C3(C)C)[C@]2(C)O1` [Compound A26] it was 500 to 2000 nM; in that of `CC(C)C[C@H](NC(=O)[C@H](Cc1cn(C(=O)OC(C)(C)C)c2ccccc12)NC(=O)C1CC2C=CC1C2)B1O[C@@H]2C[C@@H]3C[C@@H](C3(C)C)[C@]2(C)O1` (some centres unmarked) [Compound A27], under 100 nM.
In the case of `CC(C)C[C@H](NC(=O)[C@H](Cc1cn(C(=O)OC(C)(C)C)c2ccccc12)NC(=O)C12CC3CC(C1)C(=O)C(C3)C2)B1O[C@@H]2C[C@@H]3C[C@@H](C3(C)C)[C@]2(C)O1` [Compound A28] it was 500 to 2000 nM.
The value for `CC(C)C[C@H](NC(=O)[C@H](Cc1c[nH]c2ccccc12)NC(=O)CC1CCCCC1)B1O[C@@H]2C[C@@H]3C[C@@H](C3(C)C)[C@]2(C)O1` [Compound A29] was under 100 nM; that for `CC(C)C[C@H](NC(=O)[C@H](Cc1c[nH]c2ccccc12)NC(=O)CC1CCCC1)B1O[C@@H]2C[C@@H]3C[C@@H](C3(C)C)[C@]2(C)O1` [Compound A30] was under 100 nM.
In the case of `CC(C)C[C@H](NC(=O)[C@H](Cc1c[nH]c2ccccc12)NC(=O)CC1CC1)B1O[C@@H]2C[C@@H]3C[C@@H](C3(C)C)[C@]2(C)O1` [Compound A31], the 50% inhibitory concentration (IC50) is under 100 nM.
The value for `CC(C)C[C@H](NC(=O)[C@H](Cc1c[nH]c2ccccc12)NS(=O)(=O)Cc1ccccc1)B1O[C@@H]2C[C@@H]3C[C@@H](C3(C)C)[C@]2(C)O1` [Compound A32] was under 100 nM.
In the case of `CC(C)C[C@H](NC(=O)[C@H](Cc1c[nH]c2ccccc12)NC(=O)c1ccncc1)B1O[C@@H]2C[C@@H]3C[C@@H](C3(C)C)[C@]2(C)O1` [Compound A33] it was 500 to 2000 nM; in that of `CC(C)C[C@H](NC(=O)[C@H](Cc1c[nH]c2ccccc12)NC(=O)c1nc2ccccc2s1)B1O[C@@H]2C[C@@H]3C[C@@H](C3(C)C)[C@]2(C)O1` [Compound A34], 100 to 500 nM; in that of `CC(C)C[C@H](NC(=O)[C@H](Cc1c[nH]c2ccccc12)NC(=O)c1ccc2ncccc2c1)B1O[C@@H]2C[C@@H]3C[C@@H](C3(C)C)[C@]2(C)O1` [Compound A35], 100 to 500 nM.
`CC(C)C[C@H](NC(=O)[C@H](Cc1c[nH]c2ccccc12)NC(=O)c1cnc2ccccc2c1)B1O[C@@H]2C[C@@H]3C[C@@H](C3(C)C)[C@]2(C)O1` [Compound A36] returned an IC50 of under 100 nM.
The value for `CC(C)C[C@H](NC(=O)[C@H](Cc1c[nH]c2ccccc12)NC(=O)c1ccc2ccccc2c1)B1O[C@@H]2C[C@@H]3C[C@@H](C3(C)C)[C@]2(C)O1` [Compound A37] was under 100 nM.
The value for `CC(C)C[C@H](NC(=O)[C@H](CC(N)=O)NC(=O)CC1c2ccccc2-c2ccccc21)B1O[C@@H]2C[C@@H]3C[C@@H](C3(C)C)[C@]2(C)O1` [Compound A38] was 100 to 500 nM; that for `CC(C)C[C@H](NC(=O)[C@H](CC(C)C)NC(=O)Cn1c2ccccc2c2ccncc21)B1O[C@@H]2C[C@@H]3C[C@@H](C3(C)C)[C@]2(C)O1` [Compound A39] was 500 to 2000 nM.
In turn, `CC(C)C[C@H](NC(=O)[C@H](CC(C)C)NC(=O)Cn1c2ccc(Br)cc2c2cc(Br)ccc21)B1O[C@@H]2C[C@@H]3C[C@@H](C3(C)C)[C@]2(C)O1` [Compound A40] showed a half-maximal inhibitory concentration (IC50) of 500 to 2000 nM.
In the case of `CC(C)C[C@H](NC(=O)[C@H](CC(C)C)NC(=O)Cn1c2ccccc2c(=O)c2ccccc21)B1O[C@@H]2C[C@@H]3C[C@@H](C3(C)C)[C@]2(C)O1` [Compound A41] it was 500 to 2000 nM; in that of `CC(C)C[C@H](NC(=O)[C@H](CC(C)C)NC(=O)NC1c2ccccc2-c2ccccc21)B1O[C@@H]2C[C@@H]3C[C@@H](C3(C)C)[C@]2(C)O1` [Compound A42], under 100 nM; in that of `CC(C)C[C@H](NC(=O)[C@H](CC(C)C)NC(=O)NCC1c2ccccc2-c2ccccc21)B1O[C@@H]2C[C@@H]3C[C@@H](C3(C)C)[C@]2(C)O1` [Compound A43], under 100 nM.
Turning to `CC(C)C[C@H](NC(=O)[C@H](Cc1c[nH]c2ccccc12)NC(=O)NC1CCCC1)B1O[C@@H]2C[C@@H]3C[C@@H](C3(C)C)[C@]2(C)O1` [Compound A44], the IC50 is under 100 nM.
In the case of `CC(C)C[C@H](NC(=O)[C@H](Cc1c[nH]c2ccccc12)NC(=O)OC1CCCC1)B1O[C@@H]2C[C@@H]3C[C@@H](C3(C)C)[C@]2(C)O1` [Compound A45] it was under 100 nM; in that of `CC(C)C[C@H](NC(=O)[C@H](Cc1c[nH]c2ccccc12)NCc1ccccc1)B1O[C@@H]2C[C@@H]3C[C@@H](C3(C)C)[C@]2(C)O1` [Compound A46], 100 to 500 nM; in that of `COC(=O)C[C@H](NC(=O)CC1c2ccccc2-c2ccccc21)C(=O)N[C@@H](CC(C)C)B1O[C@@H]2C[C@@H]3C[C@@H](C3(C)C)[C@]2(C)O1` [Compound A47], under 100 nM.
In turn, `CNC(=O)C[C@H](NC(=O)CC1c2ccccc2-c2ccccc21)C(=O)N[C@@H](CC(C)C)B1O[C@@H]2C[C@@H]3C[C@@H](C3(C)C)[C@]2(C)O1` [Compound A48] showed an IC50 of under 100 nM.
The value for `CC(C)C[C@H](NC(=O)OCC1c2ccccc2-c2ccccc21)C(=O)N1CCC[C@H]1B1O[C@@H]2C[C@@H]3C[C@@H](C3(C)C)[C@]2(C)O1` [Compound A49] was 2000 to 10000 nM.
The value for `CC(C)C[C@H](NC(=O)[C@H](CC(C)C)N(C)C(=O)OCC1c2ccccc2-c2ccccc21)B1O[C@@H]2C[C@@H]3C[C@@H](C3(C)C)[C@]2(C)O1` [Compound A50] was 2000 to 10000 nM.

As usually defined, the IC50 is the concentration that gives 50% inhibition. A high value points to weaker potency.

(Values after patent US12570673B2, “c-Myc protein inhibitor, and preparation method therefor and use thereof” (SUZHOU KINTOR PHARMACEUTICALS, INC., priority 2019, dated 2026).)
